Here are results for 3 compounds from PubChem BioAssay AID1083212 (The Scripps Research Institute Molecular Screening Center, 2014).

Calls of active or inactive are those of the source.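 Rule for the calls: active = IC50 of 10 µM or lower; inactive = IC50 above 10 µM.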

The target in the assay is Tyrosyl-DNA phosphodiesterase 2 (Homo sapiens) (UniProt O95551). As to the kind of experiment: potency against TDP2 phosphodiesterase activity – biochemical, epi absorbance, IC50, late-stage follow-up (AID 1083212). To be noted: recombinant TDP2, T5PNP hydrolysis, p-nitrophenol absorbance 415 nm.
Sequence of Tyrosyl-DNA phosphodiesterase 2 (Homo sapiens) (O95551 whole entry, looked up): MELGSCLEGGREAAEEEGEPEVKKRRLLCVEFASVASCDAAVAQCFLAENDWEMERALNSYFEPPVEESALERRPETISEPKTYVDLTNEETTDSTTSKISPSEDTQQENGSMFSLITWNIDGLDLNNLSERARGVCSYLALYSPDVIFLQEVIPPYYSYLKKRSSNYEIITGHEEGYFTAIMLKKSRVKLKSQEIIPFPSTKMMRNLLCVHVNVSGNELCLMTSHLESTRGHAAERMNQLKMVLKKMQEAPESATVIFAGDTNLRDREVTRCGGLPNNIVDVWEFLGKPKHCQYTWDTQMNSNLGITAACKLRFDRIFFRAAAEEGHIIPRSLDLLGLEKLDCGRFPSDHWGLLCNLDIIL
Turning to `COc1ccc(CNC(=S)Nc2ccc(S(N)(=O)=O)cc2)cc1`, the IC50 (in general, the point on the concentration scale where inhibition reaches its midpoint) is > 128 µM (inactive). As to `O=C(O)c1ccc(NC2=C/C(=N/S(=O)(=O)c3cccs3)c3ccccc3C2=O)cc1`, the IC50 is 1.32 µM. As for `Cc1ccc(NC2=C/C(=N\S(=O)(=O)c3cccs3)c3ccccc3C2=O)cc1`, the IC50 is > 128 µM (inactive).
